# According to publication PMC9505425, “Targeting of the Mitochondrial TET1 Protein by Pyrrolo[3,2-b]pyrrole Chelators” (International Journal of Molecular Sciences, 2022):
# Values joined by “and” are separate entries in the source; they are usually repeats but may differ in a detail not shown here. Identical values can stand only once.
# How the values were obtained:
# Assay type in all cases: cell-based, human
# [1] = tested on: H-1299 cells; test: MTT cytotoxicity assay, H-1299; settings: Homo sapiens; for viability at 2.5 µM: H-1299, 2.5 uM; for viability at 5 µM: H-1299, 5 uM; for viability at 10 µM: H-1299, 10 uM; for viability at 15 µM: H-1299, 15 uM; for viability at 20 µM: H-1299, 20 uM; for IC50: NCI-H1299, MTT, 48 h
# Summary of the method: (§1)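 Cells seeded at 1.0 × 10^5/well, grown 24 h, then exposed 48 h to compounds at 0.1–20 μM (≤1% DMSO); U118-MG in DMEM, H1299 in RPMI 1640, both with 10% FBS, 37 °C. MTT 2 h, formazan in DMSO read at 570 nm; IC50 relative to untreated cells (100%).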
# [2] = tested on: U-118 MG cells; test: MTT cytotoxicity assay, U-118 MG; settings: 48 h; for IC50: MTT
# Summary of the method: as §1
# [3] = MTT cytotoxicity assay, HF-P4; settings: human, HF-P4 normal human dermal fibroblasts, repeats, read-out: Cell viability %; for viability at 48 h, 0.1 µM: HF-P4, 100 nM; for viability at 48 h, 0.5 µM: HF-P4, 500 nM; for viability at 48 h, 0.75 µM: HF-P4, 750 nM; for viability at 48 h, 1 µM: HF-P4, 1 uM; for viability at 48 h, 2.5 µM: HF-P4, 2.5 uM; for viability at 48 h, 5 µM: HF-P4, 5 uM; for viability at 48 h, 7.5 µM: HF-P4, 7.5 uM; for viability at 48 h, 10 µM: HF-P4, 10 uM; for viability at 48 h, 15 µM: HF-P4, 15 uM; for viability at 48 h, 20 µM: HF-P4, 20 uM
# Summary of the method: (§2)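 Cells seeded at 1.0 × 10^5 per well, grown 24 h, then exposed 48 h to compounds at 0.1–20 μM (DMSO ≤1%). MTT added for 2 h, formazan dissolved in DMSO, absorbance read at 570 nm. IC50 calculated relative to untreated cells (100%).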
# [4] = tested on: HF-P4 cells; test: MTT cytotoxicity assay, HF-P4; settings: 48 h; for Cell viability %: repeats; for IC50: Homo sapiens, MTT
# Summary of the method: as §2
# [5] = NCI-H1299, 48 h, repeats, read-out: Cell viability %
# [6] = Homo sapiens, U-118-MG, U-118 MG, 100 nM, repeats, read-out: Cell viability %
# [7] = Homo sapiens, U-118-MG, U-118 MG, 1 uM, repeats, read-out: Cell viability %
# [8] = Homo sapiens, U-118-MG, U-118 MG, 2.5 uM, repeats, read-out: Cell viability %
# [9] = Homo sapiens, U-118-MG, U-118 MG, 5 uM, repeats, read-out: Cell viability %
# [10] = Homo sapiens, U-118-MG, U-118 MG, 7.5 uM, repeats, read-out: Cell viability %
# [11] = Homo sapiens, U-118-MG, U-118 MG, 10 uM, repeats, read-out: Cell viability %
# [12] = Homo sapiens, U-118-MG, U-118 MG, 15 uM, repeats, read-out: Cell viability %
# [13] = Homo sapiens, U-118-MG, U-118 MG, 20 uM, repeats, read-out: Cell viability %
# [14] = U-118 MG, 100 nM, repeats, 0.1 µM
# [15] = U-118 MG, 500 nM, repeats, 0.5 µM
# [16] = U-118 MG, 750 nM, repeats, 0.75 µM
smiles,measurement,setting,value
COc1cccc(/C=N/NC(=O)c2ccc(-c3cc4c(cc(-c5ccc(C(=O)N/N=C/c6cccc(OC)c6O)cc5)n4-c4ccc(C)cc4)n3-c3ccc(C)cc3)cc2)c1O [Compound 5],viability at 0.1 µM,"[1]; NCI-H1299, 48 h, H-1299, 100 nM, repeats, read-out: Cell viability %",113%
same,viability at 0.5 µM,"[1]; NCI-H1299, 48 h, H-1299, 500 nM, repeats, read-out: Cell viability %",125%
same,viability at 2.5 µM,[1]; [5],106%
same,viability at 5 µM,[1]; [5],85.7%
same,viability at 7.5 µM,"[1]; NCI-H1299, 48 h, H-1299, 7.5 uM, repeats, read-out: Cell viability %",56.6%
same,viability at 10 µM,[1]; [5],47.9%
same,viability at 15 µM,[1]; [5],46.5%
same,viability at 20 µM,[1]; [5],31.4%
same,IC50,[1],10.1 µM
same,viability at 0.1 µM,[2]; [6],97.8%
same,viability at 0.5 µM,"[2]; Homo sapiens, U-118-MG, U-118 MG, 500 nM, repeats, read-out: Cell viability %",91.7%
same,viability at 1 µM,[2]; [7],87.4%
same,viability at 2.5 µM,[2]; [8],58.2%
same,viability at 5 µM,[2]; [9],65.3%
same,viability at 7.5 µM,[2]; [10],47.2%
same,viability at 10 µM,[2]; [11],45.5%
same,viability at 15 µM,[2]; [12],28.9%
same,viability at 20 µM,[2]; [13],21%
same,IC50,"[2]; Homo sapiens, U-118-MG",6.85 µM
same,Cell viability %,[2]; [14],97.5% and 97.94%
same,Cell viability %,[2]; [15],83.56% and 99.84%
same,Cell viability %,[2]; [16],101.0241% and 97.49% and 72.15%
same,Cell viability %,"[2]; U-118 MG, 1 uM, repeats",91.36% and 94.35%
same,Cell viability %,"[2]; U-118 MG, 2.5 uM, repeats",62.67% and 72.48%
same,Cell viability %,"[2]; U-118 MG, 5 uM, repeats",61.9341% and 54.55%
same,Cell viability %,"[2]; U-118 MG, 7.5 uM, repeats",44.6% and 36.58%
same,Cell viability %,"[2]; U-118 MG, 10 uM, repeats",44.7379% and 34.31%
same,Cell viability %,"[2]; U-118 MG, 15 uM, repeats",30.3% and 23.7185%
same,Cell viability %,"[2]; U-118 MG, 20 uM, repeats",24.2419% and 18.84%
same,"viability at 48 h, 0.1 µM",[3],104%
same,"viability at 48 h, 0.5 µM",[3],105%
same,"viability at 48 h, 0.75 µM",[3],84.2%
same,"viability at 48 h, 1 µM",[3],105%
same,"viability at 48 h, 2.5 µM",[3],96.8%
same,"viability at 48 h, 5 µM",[3],84%
same,"viability at 48 h, 7.5 µM",[3],74.5%
same,"viability at 48 h, 10 µM",[3],76.7%
same,"viability at 48 h, 15 µM",[3],63%
same,"viability at 48 h, 20 µM",[3],52.2%
same,Cell viability %,"[4]; HF-P4, 100 nM, 0.1 µM",105.3072% and 105.0738%
same,Cell viability %,"[4]; HF-P4, 500 nM, 0.5 µM",98.21% and 101.0423%
same,Cell viability %,"[4]; HF-P4, 750 nM, 0.75 µM",95.79% and 102.0649%
same,Cell viability %,"[4]; HF-P4, 1 uM, 1 µM",86.8% and 100.59%
same,Cell viability %,"[4]; HF-P4, 2.5 uM, 2.5 µM",91.7616% and 90.46%
same,Cell viability %,"[4]; HF-P4, 5 uM, 5 µM",65.3% and 72.65%
same,Cell viability %,"[4]; HF-P4, 7.5 uM, 7.5 µM",71.79% and 64.35%
same,Cell viability %,"[4]; HF-P4, 10 uM, 10 µM",58.3808% and 56.93%
same,Cell viability %,"[4]; HF-P4, 15 uM, 15 µM",60.12% and 45.66%
same,Cell viability %,"[4]; HF-P4, 20 uM, 20 µM",55.03% and 53.24%
same,IC50,[4],> 20 µM
Cc1ccc(-n2c(-c3ccc(C(=O)N/N=C/c4cc(F)ccc4O)cc3)cc3c2cc(-c2ccc(C(=O)N/N=C/c4cc(F)ccc4O)cc2)n3-c2ccc(C)cc2)cc1 [Compound 3],viability at 2.5 µM,[1]; [5],124%
same,viability at 5 µM,[1]; [5],85.7%
same,viability at 10 µM,[1]; [5],47.9%
same,viability at 15 µM,[1]; [5],58.9%
same,viability at 20 µM,[1]; [5],31.4%
same,IC50,[1],10.6 µM
same,viability at 0.1 µM,[2]; [6],90.9%
same,viability at 0.75 µM,"[2]; Homo sapiens, U-118-MG, U-118 MG, 750 nM, repeats, read-out: Cell viability %",70.2%
same,viability at 1 µM,[2]; [7],75.9%
same,viability at 2.5 µM,[2]; [8],64.7%
same,viability at 5 µM,[2]; [9],57.1%
same,viability at 7.5 µM,[2]; [10],48.3%
same,viability at 10 µM,[2]; [11],45.6%
same,viability at 15 µM,[2]; [12],42.6%
same,viability at 20 µM,[2]; [13],35.1%
same,IC50,"[2]; Homo sapiens, U-118-MG",19.5 µM
same,Cell viability %,[2]; [14],99.65% and 109.711%
same,Cell viability %,[2]; [15],87.97% and 59.47% and 56.29%
same,Cell viability %,[2]; [16],72.44% and 70.85%
same,Cell viability %,"[2]; U-118 MG, 1 uM, repeats",71.04% and 66.44%
same,Cell viability %,"[2]; U-118 MG, 2.5 uM, repeats",61.47% and 71.58%
same,Cell viability %,"[2]; U-118 MG, 5 uM, repeats",68.44% and 68.48%
same,Cell viability %,"[2]; U-118 MG, 7.5 uM, repeats",52.95% and 55.16%
same,Cell viability %,"[2]; U-118 MG, 10 uM, repeats",53.29% and 53%
same,Cell viability %,"[2]; U-118 MG, 15 uM, repeats",46.07% and 47.09%
same,Cell viability %,"[2]; U-118 MG, 20 uM, repeats",30.47% and 32.82%
same,"viability at 48 h, 0.1 µM",[3],95.8%
same,"viability at 48 h, 0.5 µM",[3],99.9%
same,"viability at 48 h, 0.75 µM",[3],107%
same,"viability at 48 h, 1 µM",[3],100%
same,"viability at 48 h, 2.5 µM",[3],87.1%
same,"viability at 48 h, 5 µM",[3],85.8%
same,"viability at 48 h, 7.5 µM",[3],78.7%
same,"viability at 48 h, 10 µM",[3],82.6%
same,"viability at 48 h, 15 µM",[3],65.6%
same,"viability at 48 h, 20 µM",[3],59%
same,Cell viability %,"[4]; HF-P4, 100 nM, 0.1 µM",96.12% and 98.08%
same,Cell viability %,"[4]; HF-P4, 500 nM, 0.5 µM",100.1756% and 103.312%
same,Cell viability %,"[4]; HF-P4, 750 nM, 0.75 µM",98.1566% and 91.216%
same,Cell viability %,"[4]; HF-P4, 1 uM, 1 µM",97.13% and 98.88%
same,Cell viability %,"[4]; HF-P4, 2.5 uM, 2.5 µM",92.78% and 93.78%
same,Cell viability %,"[4]; HF-P4, 5 uM, 5 µM",90.27% and 73.392%
same,Cell viability %,"[4]; HF-P4, 7.5 uM, 7.5 µM",83.18% and 77.088%
same,Cell viability %,"[4]; HF-P4, 10 uM, 10 µM",74.37% and 72.544%
same,Cell viability %,"[4]; HF-P4, 15 uM, 15 µM",66.4% and 65.2%
same,Cell viability %,"[4]; HF-P4, 20 uM, 20 µM",62.78% and 65.696%
same,IC50,[4],> 20 µM
